Test results from article PMC5234788 (PLoS ONE, 2017).

Columns and labels:
Type in all cases: in vivo
male CD-1 ICR mice [1] = experiment: Locomotor activity test; settings: DZP 2 mg/kg, i.p., 60 min
Description: The spontaneous activity video analysis system consists of 8 sound-attenuated chambers (40 cm × 40 cm × 65 cm) with a built-in infrared camera. (JL Behave, Shanghai Ji-Liang Software Technology Co., Ltd). During the behavioral tests, the experimenter was outside the testing room, and the chambers were cleaned between successive runs. Forty male CD-1 ICR mice were allowed to acclimate for three days in home cages and were handled for another three days to minimize stress after arrival in the animal facility. On the following day, after habituation to the activity chambers for 60 min, mice were administered vehicle, diazepam (DZP, 2 mg/kg, i.p.) or l–THBr (1, 5, or 10 mg/kg, i.p.) and immediately placed into the test chambers to record their locomotor activity for 60 min.

male CD-1 ICR mice [2] = experiment: Light-dark box test; settings: DZP 2 mg/kg, 30 min before test, P < 0.05 vs vehicle
Description: The light-dark box test is a sensitive model to detect activity in disorders related to anxiety, based on the innate aversion of rodents to brightly lit areas and on their spontaneous exploratory behavior in response to a novel environment. The light-dark transition box is a polypropylene animal cage (44 cm × 21 cm × 21 cm), which is divided into two compartments, a light box (illuminated by a 60 W light source with 1000 lx light intensity) and a dark box. Forty-eight male CD-1 ICR mice were placed in the light box 30 min after l–THBr or DZP injection and allowed to move freely to both boxes for 5 min. The number of transitions between the two boxes were recorded by a video camera.

male CD-1 ICR mice [3] = experiment: Elevated plus-maze test; settings: DZP 2 mg/kg, i.p., P < 0.05 vs control
Description: The elevated plus-maze test is widely used for the screening and evaluation of anxiolytic drugs. The apparatus consists of two open arms (30 cm × 5 cm) and two enclosed arms (30 cm × 5 cm × 15 cm), which is elevated 45 cm above the ground. The entire maze was made of clear Plexiglas and illuminated by four 30 W white lights with 300 lx light intensity arranged as a cross 100 cm above the maze. 48 male CD-1 ICR mice were randomly divided into either the vehicle group, one of three doses of l–THBr groups, or the diazepam group. 30 min after injection, mice were gently placed on the center platform facing an open arm, and the number of entries and the time spent in both arms were recorded by a video camera for 5 min. The results were expressed as the percentage of entries into the open arms (%) = (the number of entries into the open arms / the total number of entries into the four arms) × 100%; and the percentage of time spent in the open arms (%) = (time spent in the open arms / total time spent in the four arms) × 100%.
In a separate experiment, WAY100635 (a 5-HT1A antagonist) was used to test whether the anxiolytic-like activity of l-THBr is mediated by the activation of the 5-HT1A receptor. Forty male CD-1 ICR mice were randomly divided into one of four groups: vehicle, WAY100635 (3 mg/kg, i.p.), l–THBr (5 mg/kg, i.p.) or WAY100635 (3 mg/kg, i.p.) + l–THBr (5 mg/kg, i.p.). Mice were administered vehicle or WAY100635 followed by vehicle or l–THBr (5 mg/kg) injections 15 min later. The test was performed 30 min after the administration of l-THBr or vehicle.

CN1C(=O)CN=C(c2ccccc2)c2cc(Cl)ccc21 [Diazepam, reference compound]
influence on locomotor activity (travel distance) (male CD-1 ICR mice [1]): no influence
number of transitions between the light/dark sides (male CD-1 ICR mice [2]): increased
percentage of entries into the open arms (male CD-1 ICR mice [3]): significant increase
percentage of time spent in the open arms (male CD-1 ICR mice [3]): significant increase
